The values below come from patent US20210046160A1 (Synthorx, Inc., priority 2019, published 2021).

The Cmax is the maximum level reached in the sampled fluid or tissue. As a reminder, the Tmax is the time at which the peak concentration occurs. In general, t½ refers to the time in which the quantity being followed falls by half.

The subject of one data set is Treg cells. The data set is described as follows: pSTAT5 concentration-response in human LRS-derived PBMC samples (flow cytometry): Treg cells. To be noted: ratio of pSTAT5 EC50 values; for CD8+/Treg ratio: Table 12; for CD8/Treg ratio: Table 4. The data set is classed as cell-based. Here is the method: These studies were performed at PrimityBio LLC (Fremont, Calif.). […] Staining panel for flow cytometry study of LRS-derived PBMC samples include markers for Effector T cells (Teff: CD3+, CD4+, CD8+, CD127+), NK cells (CD3-, CD16+), and Regulatory T cells (Treg: CD3+, CD4+, CD8-, IL-2Rα+, CD127-1).
The EC50 values (pg/mL) was calculated from dose response curves generated from MFI plots.
These studies were performed at PrimityBio LLC (Fremont, Calif.). […] Staining panel for flow cytometry study of LRS-derived PBMC samples include markers CD4, CD4+ memory central, CD4+ memory effect, CD4+ memory T cells, CD4+ Naive T cells, CD4+ T cells, CD8, CD8+ memory central, CD8+ memory effect, CD8+ memory T cells, CD8+ Naive T cells, CD8+ T cells, NK cells, and T regulatory cells.
Conjugates of Table 12 were synthesized by modification of SEQ NO. 1. These studies were performed at PrimityBio LLC (Fremont, Calif.).
The EC50 values (pg/ml) were calculated from dose response curves generated from the MFI plots.

For a further data set, the system named is CTLL-2. Briefly: CTLL-2 proliferation. The data set is classed as cell-based.
Data set [1] in a line: PK study E3826-U1704 in naïve C57BL/6 mice (human IL-2 ELISA of plasma). The data set is classed as in vivo. To be noted: for AUC0-t / AUCINF / CL / Cmax / Tmax / Vss (distribution volume) / t½: C57BL/6 female mice, single IV bolus 0.3 mg/kg, E62_5 kD from a separate study; for mean plasma concentrations measurable out to (post-dose): single IV bolus, 120 h = last measured time point. Here is the method: Terminal blood samples were collected via cardiac puncture at the points indicated. […] Plasma and blood cells (in both studies) and tumors in study E3826-U1803 were collected for PK and PD analyses.
Bioanalysis of plasma samples was performed using a qualified human IL-2 ELISA assay (Abcam, Cambridge, UK). Concentrations of Aldesleukin, E62_30kD and P65_30kD and the internal standard in samples derived from plasma were determined using an ELISA assay. […] The PK data were imported into Phoenix WinNonlin v6.4 (Certara/Pharsight, Princeton, N.J.) for analysis. The group mean plasma concentration versus time data were analyzed with noncompartmental methods using an IV bolus administration model.

Data set [2] can be described thus: PK study of K35_30kD in C57BL/6 mice (Example 8). The data set is classed as in vivo. To be noted: male C57BL/6 mice. Here is the method:
The lyophilized test article was reconstituted in PBS, and nine male C57BL/6 mice were dosed with 0.3 and 3 mg/kg via intravenous tail vein injection for each dose group (see collection details below). Blood samples were collected at 0.08, 0.25, 0.5, 1, 2, 4, 8, 12, and 24 hours post dose. […] To adjust for ELISA-specific differences in sensitivity of kit detection of native and PEGylated compounds, native IL-2 and K35_30kD test article standard curves were generated using the test article diluent buffer, and data were analyzed with respect to respective standard curves. The data plotted represent the mean and SEM of three individual samples (biological replicates) as described above, and PK parameters for K35_30 kD test articles were extracted and summarized in Table 14.

As for “N88R/D109_30kD: IL-2 variant N88R with 30 kD PEG at D109, made by modification of SEQ NO. 1”, the “CD8+/Treg ratio” value in the data set on Treg cells is 71. In addition, in the data set with CTLL-2 (Table 12), the “EC50, CTLL-2 proliferation” value came out at 59577 pg/mL.

Regarding “N26_30kD: 30 kD PEGylated IL-2 conjugate at N26, made by modification of SEQ NO. 1 [Compound N26_30kD]”, the “CD8+/Treg ratio” value in the data set with Treg cells stood at 483. The “EC50, CTLL-2 proliferation” value with CTLL-2 (Table 12) is 2594 pg/mL.

For the substance “K9_30kD: 30 kD PEGylated IL-2 conjugate at K9, made by modification of SEQ NO. 1 [Compound K9_30kD]”, the “CD8+/Treg ratio” value with Treg cells was 496. Further, the “EC50, CTLL-2 proliferation” value in the data set on CTLL-2 (Table 12) worked out at 504 pg/mL.

“T123_30kD: 30 kD PEGylated IL-2 conjugate at T123, made by modification of SEQ NO. 1 [Compound T123_30kD]”: in the data set on Treg cells, the “CD8+/Treg ratio” value came out at 569. In addition, in the data set on CTLL-2 (Table 12), the “EC50, CTLL-2 proliferation” value is 255 pg/mL.

On to “T131_30kD: 30 kD PEGylated IL-2 conjugate at T131, made by modification of SEQ NO. 1 [Compound T131_30kD]”, for which the “CD8+/Treg ratio” value in the data set with Treg cells was found to be 515. In the data set on CTLL-2 (Table 12), the “EC50, CTLL-2 proliferation” value worked out at 641 pg/mL.

Consider “V91K: IL-2 variant with substitution V91K [Compound V91K]”, for which the “CD8+/Treg ratio” value in the data set with Treg cells was found to be 720. The “EC50, CTLL-2 proliferation” value in the data set on CTLL-2 (Table 12) was found to be 99.5 pg/mL.

With “D20_30kD: 30 kD PEGylated IL-2 conjugate at D20, made by modification of SEQ NO. 1 [Compound D20_30kD]”, the “CD8+/Treg ratio” value in the data set on Treg cells turned out to be 8. Also, the “EC50, CTLL-2 proliferation” value in the data set on CTLL-2 (Table 12) is 689939 pg/mL.

As for “E100_30kD: 30 kD PEGylated IL-2 conjugate at E100, made by modification of SEQ NO. 1 [Compound E100_30kD]”, in the data set with Treg cells, the “CD8+/Treg ratio” value came to 405. The “EC50, CTLL-2 proliferation” value in the data set with CTLL-2 (Table 12) came to 1676 pg/mL.

On to “E62_30kD: SEQ ID NO: 26: IL-2 (SEQ ID NO: 4) with E62 replaced by AzK conjugated to methoxy linear 30 kDa PEG [Compound E62_30kD]”, for which the CD8/Treg ratio in the data set with Treg cells was found to be 1.8. Further, in the data set with CTLL-2 (Table 4), the “EC50, CTLL-2 proliferation” value is on record as 398,012 pg/mL. In data set [1], the AUC0-t is 37,100 h*ng/mL, the AUCINF is listed as 37,100 h*ng/mL, the CL is 0.134 mL/min/kg and the Cmax is given as 4,230 ng/mL. In data set [1], the Tmax is 1.8 min, the “Vss (distribution volume)” value came to 0.0923 L/kg, the t½ is given as 14.500 h and the “mean plasma concentrations measurable out to (post-dose)” value was 120 h.

Turning to “N119_30kD: 30 kD PEGylated IL-2 conjugate at N119, made by modification of SEQ NO. 1 [Compound N119_30kD]”, the “CD8+/Treg ratio” value in the data set with Treg cells is 268. Besides, in the data set with CTLL-2 (Table 12), the “EC50, CTLL-2 proliferation” value came to 1215 pg/mL.

As for “N88R: IL-2 variant with substitution N88R [Compound N88R]”, the “CD8+/Treg ratio” value with Treg cells amounted to 1356. For the same substance, in the data set on CTLL-2 (Table 12), the “EC50, CTLL-2 proliferation” value worked out at 363 pg/mL.

For “Q126_30kD: 30 kD PEGylated IL-2 conjugate at Q126, made by modification of SEQ NO. 1 [Compound Q126_30kD]”, in the data set with Treg cells, the “CD8+/Treg ratio” value is recorded as 670. In addition, the “EC50, CTLL-2 proliferation” value in the data set with CTLL-2 (Table 12) came to 3584 pg/mL.

“H16_30kD: 30 kD PEGylated IL-2 conjugate at H16, made by modification of SEQ NO. 1 [Compound H16_30kD]”: the “CD8+/Treg ratio” value in the data set on Treg cells is 345. Besides, the “EC50, CTLL-2 proliferation” value with CTLL-2 (Table 12) stood at 80755 pg/mL.

Take “E62_5kD: SEQ ID NO: 21: IL-2 (SEQ ID NO: 4) with E62 replaced by AzK conjugated to methoxy linear 5 kDa PEG [Compound E62_5kD]”: in the data set with Treg cells, the CD8/Treg ratio is reported as 2.3. Also, the “EC50, CTLL-2 proliferation” value in the data set with CTLL-2 (Table 4) is 275,590 pg/mL. In data set [1], this substance came in with an AUC0-t of 798 ng·h/mL, an AUCINF of 807 ng·h/mL, a CL of 6.2 mL/min/kg and a Cmax of 936 ng/mL. In addition, in data set [1], the Tmax was 7.98 min, the “Vss (distribution volume)” value amounted to 0.404 L/kg, the t½ stood at 2.56 h and the “mean plasma concentrations measurable out to (post-dose)” value is 12 h.

Take “S127_30kD: 30 kD PEGylated IL-2 conjugate at S127, made by modification of SEQ NO. 1 [Compound S127_30kD]”: in the data set with Treg cells, the “CD8+/Treg ratio” value is on record as 615. The “EC50, CTLL-2 proliferation” value with CTLL-2 (Table 12) was 123 pg/mL.

With “P65_5kD: SEQ ID NO: 20: IL-2 (SEQ ID NO: 4) with P65 replaced by AzK conjugated to methoxy linear 5 kDa PEG [Compound P65_5kD]”, the CD8/Treg ratio in the data set on Treg cells amounted to 2.2. Besides, the “EC50, CTLL-2 proliferation” value in the data set with CTLL-2 (Table 4) was 194,924 pg/mL.

“M23_30kD: 30 kD PEGylated IL-2 conjugate at M23, made by modification of SEQ NO. 1 [Compound M23_30kD]”: in the data set on Treg cells, the “CD8+/Treg ratio” value is 524. Besides, the “EC50, CTLL-2 proliferation” value in the data set with CTLL-2 (Table 12) was 1102 pg/mL.

With “N88_30kD: 30 kD PEGylated IL-2 conjugate at N88, made by modification of SEQ NO. 1 [Compound N88_30kD]”, the “CD8+/Treg ratio” value in the data set on Treg cells was found to be 34. Moreover, in the data set with CTLL-2 (Table 12), the “EC50, CTLL-2 proliferation” value was found to be 66606 pg/mL.

With “K35_30kD: SEQ ID NO: 29: IL-2 (SEQ ID NO: 4) with K35 replaced by AzK conjugated to methoxy linear 30 kDa PEG [Compound K35_30kD]”, in the data set with Treg cells, the CD8/Treg ratio is 176.0. In data set [2] (0.3 mg/kg single IV), the AUC1/2extrap is on record as 35.3%, the AUCo-t/D was 128000 ng·h/mL, the “AUG0-∞” value came to 59600 ng·h/mL and the Cmax turned out to be 6080 ng/mL. Further, in data set [2] (0.3 mg/kg single IV), the Cmax/D stood at 20300 kg·ng/mL/mg, the time of peak concentration (Tmax) turned out to be 0.250 h and the t1/2 turned out to be 18.2 h. In addition, in data set [2] (3 mg/kg single IV), the AUC1/2extrap is on record as 37.4%, the AUCo-t/D was determined as 142000 ng·h/mL, the “AUG0-∞” value worked out at 679000 ng·h/mL and the Cmax is on record as 57700 ng/mL. Besides, in data set [2] (3 mg/kg single IV), the Cmax/D was 19200 kg·ng/mL/mg, the Tmax amounted to 0.250 h and the t1/2 was found to be 19.5 h.

As for “E62K: IL-2 variant with residue substitution E62K, not PEGylated [Compound E62K]”, the CD8/Treg ratio in the data set with Treg cells is on record as 5.8. Moreover, the “EC50, CTLL-2 proliferation” value in the data set with CTLL-2 (Table 4) is on record as 58,213 pg/mL.

In the case of “L19_30kD: 30 kD PEGylated IL-2 conjugate at L19, made by modification of SEQ NO. 1 [Compound L19_30kD]”, in the data set on Treg cells, the “CD8+/Treg ratio” value is 241. The “EC50, CTLL-2 proliferation” value in the data set on CTLL-2 (Table 12) was found to be 3510 pg/mL.
